Patent US12195452B2, “N-(4-(oxazol-5-yl)phenyl) chromane-3-carboxamide derivatives and related compounds as stimulators of the production of retinal precursor cells for the treatment of neuroretinal diseases” (ENDOGENA THERAPEUTICS, INC., priority 2018, dated 2025)

System: retinal precursor cells
Assay: Sphere passaging and high-throughput drug screening: proliferation of retinal precursor cells from the ciliary epithelium, cell number after one week
Format: cell-based, mammalian
Conditions: for Cell proliferation within one week [%]: control experiment (absence of a compound) = 100, cells grown for one week; for increase of cell proliferation: within one week, over control
Experimental: Kynurenic Acid (0.2 mg/mL), trypsin (1.33 mg/mL), and hyaluronidase (0.67 mg/mL) were weighed out and dissolved in high magnesium/low calcium artificial cerebral spinal fluid (aCSF) at 37° C. Fibroblast growth factor 2 (FGF2; 10 ng/mL) and heparin (2 μg/mL) were added to 100 mL of serum-free media (SFM). Ovomucoid trypsin inhibitor (1 mg/mL) was dissolved in warm SFM and sterile filtered ([…]).
A dissecting microscope, cold light source, and sterile surgical instruments were set up inside of a sterile biological safety cabinet (BSC). Mammalian eyes were enucleated and placed in a petri dish containing cold, sterile aCSF. Under the dissecting microscope, hair, connective tissue, and the dorsal and ventral oblique muscles were cleared from the scleral/corneal border with two sets of forceps. Next, curved or angled micro-dissecting scissors were used to cleave any remaining extraocular muscle tissue, the optic nerve, and cut the eyeball into symmetrical halves; beginning and finishing the cut from the hole left by the optic nerve. Using two sets of forceps to grasp the cornea, the two eye halves were peeled apart. The lens, optic nerve, and vitreous were separated from the eye shells and the eye shells were transferred into a new petri dish (also containing cold, sterile aCSF). To isolate the ciliary epithelium (CE), eye shells were oriented with the cornea on the right and retinal pigmented epithelium (RPE) on the left. A pair of straight forceps were used to pin down the eye shell on the RPE side while a scalpel blade was inserted between the CE and the iris, using pressure to slice the iris/cornea side off from the rest of the shell. Next, the scalpel was run along the border between the CE and the RPE to obtain the CE isolated as a thin strip of tissue. The CE strips were then transferred to a 35 mm dish containing 2 mL of dispase solution (Sigma; T1005) and incubated for 10 minutes at 37° C. Next, the strips were transferred from dispase into a 35 mm dish containing 2 mL of sterile filtered kynurenic acid, trypsin and hyaluronidase solution and incubated at 37° C. for 10 minutes. After incubation, the dish was returned to the dissecting scope, and the CE strips were pinned down with straight, non-serrated forceps, while non-serrated curved forceps were used to scrape the CE off from the underlying sclera. The bare scleral strips were then discarded, such that only the CE cells remained in the enzyme solution. Using a fire-polished, cotton-plugged glass pipette, the cells and enzyme solution were transferred to a 15 mL tube and triturated approximately 45 times to break apart the tissue. The 15 mL tube/cell suspension was centrifuged for 5 minutes at 1500 rpm. The supernatant was gently aspirated from the resulting pellet using a fire-polished, cotton-plugged glass pipette and 2 mL of trypsin inhibitor solution was added to the pellet. Using a small borehole, fire-polished, cotton-plugged glass pipette, the sample was triturated approximately 45 times until it was a single-cell suspension. The 15 mL tube/cell suspension was centrifuged for 5 minutes at 1500 rpm. The supernatant was gently aspirated from the resulting pellet and 1-2 mL of SFM with FGF2 and heparin (plating media) was added. The cells and media were mixed to ensure a uniform cell suspension and a 10 uL sample was taken and cell density was determined. The cells were then seeded and cultured at 10c/μL in culture-treated plates or flasks. After one week, roughly 1 in 500 cells proliferated to form free-floating, clonal spheres greater than 80 μm in diameter.
Human-derived spheres were passaged using the kynurenic acid, trypsin, hyaluronidase enzyme solution with the addition of collagenase I (0.5 mg/mL), collagenase II (0.5 mg/mL) and elastase (0.1 mg/mL). Mouse-derived spheres were passaged using hyaluronidase (0.67 mg/mL), collagenase I (0.5 mg/mL), and collagenase II (0.5 mg/mL) dissolved in Accustase solution (Sigma; SCR005). […]

Structure (SMILES) | Cell proliferation within one week [%] | increase of cell proliferation [%]
COc1ccc2c(c1)OC(C(=O)Nc1ccc(-c3cnco3)c(OC)c1)CO2 (racemic) [Compound 20, 7-methoxy-N-(3-methoxy-4-(oxazol-5-yl)phenyl)-2,3-dihydrobenzo[b][1,4]dioxine-2-carboxamide] | 113 | –
COc1ccc2c(c1)OC(C(=O)Nc1ccc(-c3ccncc3)c(OC)c1)CO2 (racemic) [Compound 18, 7-methoxy-N-(3-methoxy-4-(pyridin-4-yl)phenyl)-2,3-dihydrobenzo[b][1,4]dioxine-2-carboxamide] | 104 | –
COc1cc(NC(=O)C2COc3ccccc3C2)ccc1-c1cnco1 (racemic) [Compound 12, N-(3-methoxy-4-(oxazol-5-yl)phenyl) chromane-3-carboxamide] | 230 | 130
Cc1ncc(-c2ccc(NC(=O)C3COc4ccccc4C3)cc2Cl)o1 (racemic) [Compound 30, N-(3-chloro-4-(2-methyloxazol-5-yl)phenyl)chromane-3-carboxamide] | 119 | –
COc1cc(NC(=O)C2CCOc3ccccc32)ccc1-c1cnco1 (racemic) [Compound 11, N-(3-methoxy-4-(oxazol-5-yl)phenyl) chromane-4-carboxamide] | 140 | 40
O=C(Nc1ccc(-c2cnco2)c(Cl)c1)C1Cc2ccccc2O1 (racemic) [Compound 31, N-(3-chloro-4-(oxazol-5-yl)phenyl)-2,3-dihydrobenzofuran-2-carboxamide] | 137 | –
O=C(Nc1ccc(-c2cnco2)c(F)c1)C1COc2ccccc2C1 (racemic) [Compound 5, N-(3-fluoro-4-(oxazol-5-yl)phenyl)chromane-3-carboxamide] | 133 | –
O=C(Nc1ccc(-c2cnco2)c(Cl)c1)C1COc2ccc(F)cc2C1 (stereo not drawn) [Compound 42, N-(3-chloro-4-(oxazol-5-yl)phenyl)-6-fluorochromane-3-carboxamide] | 124 | –
O=C(Nc1ccc(-c2cnco2)c(Cl)c1)C1COc2c(F)cc(F)cc2C1 (racemic) [Compound 39, N-(3-chloro-4-(oxazol-5-yl)phenyl)-6,8-difluorochromane-3-carboxamide] | 132 | –
COc1ccc2c(c1)CC(C(=O)Nc1ccc(-c3cnco3)c(OC)c1)CO2 (racemic) [Compound 14, 6-methoxy-N-(3-methoxy-4-(oxazol-5-yl)phenyl)chromane-3-carboxamide] | 196 | 96
Cc1cc(NC(=O)C2COc3ccccc3C2)ccc1-c1cnco1 (racemic) [Compound 22, N-(3-methyl-4-(oxazol-5-yl)phenyl) chromane-3-carboxamide] | 120 | –
O=C(Nc1ccc(-c2nnco2)c(F)c1)C1COc2ccccc2C1 (racemic) [Compound 29, N-(3-fluoro-4-(1,3,4-oxadiazol-2-yl)phenyl)chromane-3-carboxamide] | 108 | –
Cc1cc(-c2cnco2)ccc1NC(=O)C1COc2ccccc2C1 (racemic) [Compound 23, N-(2-methyl-4-(oxazol-5-yl)phenyl) chroman-3-carboxamide] | 116 | –
COc1cc(NC(=O)C2CCOc3ccccc32)ccc1-c1ccncc1 (racemic) [Compound 15, N-(3-methoxy-4-(pyridin-4-yl)phenyl)chromane-4-carboxamide] | 122 | –
O=C(Nc1ccc(-c2cnco2)c(Cl)c1)C1COc2ccc(Cl)cc2C1 (racemic) [Compound 38, 6-chloro-N-(3-chloro-4-(oxazol-5-yl)phenyl)chromane-3-carboxamide] | 122 | 58
O=C(Nc1ccc(-c2cnco2)c(Cl)c1)C1CCOc2ccccc21 (racemic) [Compound 2, N-(3-chloro-4-(oxazol-5-yl)phenyl) chromane-4-carboxamide] | 128 | –

Structure (SMILES) | Cell proliferation within one week [%] | increase of cell proliferation [%]
O=C(CC1Cc2ccccc2O1)Nc1ccc(-c2cnco2)c(Cl)c1 (racemic) [Compound 34, N-(3-chloro-4-(oxazol-5-yl)phenyl)-2-(2,3-dihydrobenzofuran-2-yl)acetamide] | 129 | –
COc1cc(NC(=O)C2COc3ccccc3O2)ccc1-c1cnco1 (racemic) [Compound 13, N-(3-methoxy-4-(oxazol-5-yl)phenyl)-2,3-dihydrobenzo[b][1,4]dioxine-2-carboxamide] | 137 | –
O=C(Nc1ccc(-c2cnco2)c(Cl)c1)C1COc2ccccc2O1 (racemic) [Compound 6, N-(3-chloro-4-(oxazol-5-yl)phenyl)-2,3-dihydrobenzo[b][1,4]dioxine-2-carboxamide] | 120 | –
O=C(Nc1ccc(-c2cnco2)c(Cl)c1)C1CCOc2ccccc21 (racemic) [Compound 32, N-(3-chloro-4-(oxazol-5-yl)phenyl)chromane-4-carboxamide] | 113 | –
O=C(Nc1ccc(-c2cnco2)c(Cl)c1)C1COc2ccccc2C1 (racemic) [Compound 1, N-(3-chloro-4-(1,3-oxazol-5-yl)phenyl) chromane-3-carboxamide] | 179 | 79
COc1cc(NC(=O)C2COc3ccccc3C2)ccc1-c1ccncc1 (racemic) [Compound 17, N-(3-methoxy-4-(pyridin-4-yl)phenyl)chromane-3-carboxamide] | 114 | –
O=C(Nc1ccc(-c2cnco2)c(Cl)c1)C1COc2ccccc2C1 (single isomer, unassigned; (-)) [Compound 21, (−)-N-(3-chloro-4-(1,3-oxazol-5-yl)phenyl)chromane-3-carboxamide] | 126 | –
O=C(Nc1ccc(-c2cnco2)c(Cl)c1)C1Cc2ccccc2C1 (racemic) [Compound 36, N-(3-chloro-4-(oxazol-5-yl)phenyl)-2,3-dihydro-1H-indene-2-carboxamide] | 124 | –
O=C(Nc1ccc(-c2cnco2)c(Cl)c1)C1CCc2ccccc21 (racemic) [Compound 33, N-(3-chloro-4-(oxazol-5-yl)phenyl)-2,3-dihydro-1H-indene-1-carboxamide] | 116 | –
O=C(Nc1ccc(-c2cnco2)c(Cl)c1)C1COc2cc(F)ccc2C1 (racemic) [Compound 37, N-(3-chloro-4-(oxazol-5-yl)phenyl)-7-fluorochromane-3-carboxamide] | 158 | –
COc1ccc2c(c1)OC(C(=O)Nc1ccc(-c3cnco3)c(F)c1)CO2 (racemic) [Compound 7, N-(3-fluoro-4-(oxazol-5-yl)phenyl)-7-methoxy-2,3-dihydrobenzo[b][1,4]dioxine-2-carboxamide] | 123 | –
COc1ccc2c(c1)CC(C(=O)Nc1ccc(-c3cnco3)c(F)c1)CO2 (racemic) [Compound 10, N-(3-fluoro-4-(oxazol-5-yl)phenyl)-6-methoxychromane-3-carboxamide] | 121 | –
O=C(Nc1ccc(-c2cnco2)c(F)c1)C1COc2ccccc2O1 (racemic) [Compound 9, N-(3-fluoro-4-(oxazol-5-yl)phenyl)-2,3-dihydrobenzo[b][1,4]dioxine-2-carboxamide] | 118 | –
COc1cccc2c1CC(C(=O)Nc1ccc(-c3cnco3)c(Cl)c1)CO2 (racemic) [Compound 40, N-(3-chloro-4-(oxazol-5-yl)phenyl)-5-methoxychromane-3-carboxamide] | 107 | –
Cc1cc(NC(=O)C2COc3ccccc3C2)ccc1-c1cnco1 (stereo not drawn) [Compound 25, N-(3-methyl-4-(oxazol-5-yl)phenyl)chromane-3-carboxamide] | 120 | –
